Source: ChEMBL document CHEMBL5214923, “Contemporary mTOR inhibitor scaffolds to diseases breakdown: A patent review (2015-2021)” (Eur J Med Chem, 2022)
pIC50: −log10 of the molar value.

What was measured:
[1] = target: T1, Phosphatidylinositol 4,5-bisphosphate 3-kinase catalytic subunit alpha isoform (Homo sapiens, UniProt P42336); assay: Inhibition of PI3Kalpha (unknown origin)
[2] = target: T1, Phosphatidylinositol 4,5-bisphosphate 3-kinase catalytic subunit alpha isoform; assay: Inhibition of PI3Kalpha (unknown origin) by TR-FRET assay
[3] = target: Phosphatidylinositol 4,5-bisphosphate 3-kinase catalytic subunit beta isoform (Homo sapiens, UniProt P42338); assay: Inhibition of PI3Kbeta (unknown origin) by TR-FRET assay
[4] = target: Phosphatidylinositol 4,5-bisphosphate 3-kinase catalytic subunit gamma isoform (Homo sapiens, UniProt P48736); assay: Inhibition of PI3Kgamma (unknown origin) by TR-FRET assay
[5] = target: T2, Phosphatidylinositol 4,5-bisphosphate 3-kinase catalytic subunit delta isoform (Homo sapiens, UniProt O00329); assay: Inhibition of PI3Kdelta (unknown origin) by TR-FRET assay
T2 sequence (O00329 whole entry): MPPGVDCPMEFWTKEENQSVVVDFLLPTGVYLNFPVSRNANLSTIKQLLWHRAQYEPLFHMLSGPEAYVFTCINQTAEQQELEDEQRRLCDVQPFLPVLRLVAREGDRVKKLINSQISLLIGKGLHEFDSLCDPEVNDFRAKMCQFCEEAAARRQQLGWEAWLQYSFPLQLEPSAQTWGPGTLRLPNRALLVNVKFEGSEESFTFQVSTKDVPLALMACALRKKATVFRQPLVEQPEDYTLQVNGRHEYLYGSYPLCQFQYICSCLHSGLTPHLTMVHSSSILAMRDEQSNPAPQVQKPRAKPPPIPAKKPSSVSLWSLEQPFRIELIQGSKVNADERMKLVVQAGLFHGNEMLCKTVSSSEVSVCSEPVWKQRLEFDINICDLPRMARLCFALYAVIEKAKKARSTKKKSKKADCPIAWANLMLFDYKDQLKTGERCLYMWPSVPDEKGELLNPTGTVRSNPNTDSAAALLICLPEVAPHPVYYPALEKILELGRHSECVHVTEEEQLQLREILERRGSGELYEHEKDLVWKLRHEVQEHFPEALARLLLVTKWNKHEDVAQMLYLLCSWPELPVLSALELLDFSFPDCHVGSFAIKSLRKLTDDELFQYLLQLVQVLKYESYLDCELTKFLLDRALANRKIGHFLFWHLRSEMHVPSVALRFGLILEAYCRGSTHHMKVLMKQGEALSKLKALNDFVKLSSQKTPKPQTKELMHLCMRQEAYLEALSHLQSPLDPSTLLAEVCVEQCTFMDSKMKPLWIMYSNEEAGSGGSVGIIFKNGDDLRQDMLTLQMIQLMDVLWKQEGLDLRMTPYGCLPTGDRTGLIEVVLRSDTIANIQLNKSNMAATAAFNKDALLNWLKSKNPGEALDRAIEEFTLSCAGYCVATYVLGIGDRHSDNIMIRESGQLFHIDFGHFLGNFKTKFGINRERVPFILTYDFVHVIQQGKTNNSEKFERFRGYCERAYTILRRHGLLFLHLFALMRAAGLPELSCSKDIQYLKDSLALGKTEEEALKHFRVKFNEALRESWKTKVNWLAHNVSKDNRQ

T1 sequence (P42336 whole entry, canonical isoform): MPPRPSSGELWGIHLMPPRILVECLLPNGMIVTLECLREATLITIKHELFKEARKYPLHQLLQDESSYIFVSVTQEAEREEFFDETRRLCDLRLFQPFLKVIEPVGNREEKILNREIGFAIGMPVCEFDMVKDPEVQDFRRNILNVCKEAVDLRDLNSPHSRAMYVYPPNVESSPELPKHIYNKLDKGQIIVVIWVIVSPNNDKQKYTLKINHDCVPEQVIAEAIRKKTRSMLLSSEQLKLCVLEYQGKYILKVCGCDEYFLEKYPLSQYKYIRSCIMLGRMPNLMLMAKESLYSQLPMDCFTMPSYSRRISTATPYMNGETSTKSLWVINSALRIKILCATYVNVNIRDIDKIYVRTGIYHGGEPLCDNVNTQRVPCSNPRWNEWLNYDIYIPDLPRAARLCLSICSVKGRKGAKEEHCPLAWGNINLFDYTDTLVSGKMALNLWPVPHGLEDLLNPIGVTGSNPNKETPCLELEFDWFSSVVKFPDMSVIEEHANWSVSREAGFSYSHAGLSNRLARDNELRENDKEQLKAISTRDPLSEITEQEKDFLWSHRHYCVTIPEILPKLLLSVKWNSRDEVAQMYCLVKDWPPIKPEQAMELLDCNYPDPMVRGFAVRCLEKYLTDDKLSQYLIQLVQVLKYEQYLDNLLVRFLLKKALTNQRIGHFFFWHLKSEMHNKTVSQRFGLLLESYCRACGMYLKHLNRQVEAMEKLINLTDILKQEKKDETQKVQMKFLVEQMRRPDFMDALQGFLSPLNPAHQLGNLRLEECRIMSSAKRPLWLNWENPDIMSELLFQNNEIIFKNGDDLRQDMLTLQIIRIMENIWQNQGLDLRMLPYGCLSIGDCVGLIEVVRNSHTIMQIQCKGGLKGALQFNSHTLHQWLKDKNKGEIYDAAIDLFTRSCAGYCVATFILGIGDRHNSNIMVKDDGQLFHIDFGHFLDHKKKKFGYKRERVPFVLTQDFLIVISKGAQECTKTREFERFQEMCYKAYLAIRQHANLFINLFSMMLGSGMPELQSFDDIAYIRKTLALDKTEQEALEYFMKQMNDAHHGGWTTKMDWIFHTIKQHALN
Chain of Phosphatidylinositol 4,5-bisphosphate 3-kinase catalytic subunit gamma isoform (P48736 whole entry, canonical isoform): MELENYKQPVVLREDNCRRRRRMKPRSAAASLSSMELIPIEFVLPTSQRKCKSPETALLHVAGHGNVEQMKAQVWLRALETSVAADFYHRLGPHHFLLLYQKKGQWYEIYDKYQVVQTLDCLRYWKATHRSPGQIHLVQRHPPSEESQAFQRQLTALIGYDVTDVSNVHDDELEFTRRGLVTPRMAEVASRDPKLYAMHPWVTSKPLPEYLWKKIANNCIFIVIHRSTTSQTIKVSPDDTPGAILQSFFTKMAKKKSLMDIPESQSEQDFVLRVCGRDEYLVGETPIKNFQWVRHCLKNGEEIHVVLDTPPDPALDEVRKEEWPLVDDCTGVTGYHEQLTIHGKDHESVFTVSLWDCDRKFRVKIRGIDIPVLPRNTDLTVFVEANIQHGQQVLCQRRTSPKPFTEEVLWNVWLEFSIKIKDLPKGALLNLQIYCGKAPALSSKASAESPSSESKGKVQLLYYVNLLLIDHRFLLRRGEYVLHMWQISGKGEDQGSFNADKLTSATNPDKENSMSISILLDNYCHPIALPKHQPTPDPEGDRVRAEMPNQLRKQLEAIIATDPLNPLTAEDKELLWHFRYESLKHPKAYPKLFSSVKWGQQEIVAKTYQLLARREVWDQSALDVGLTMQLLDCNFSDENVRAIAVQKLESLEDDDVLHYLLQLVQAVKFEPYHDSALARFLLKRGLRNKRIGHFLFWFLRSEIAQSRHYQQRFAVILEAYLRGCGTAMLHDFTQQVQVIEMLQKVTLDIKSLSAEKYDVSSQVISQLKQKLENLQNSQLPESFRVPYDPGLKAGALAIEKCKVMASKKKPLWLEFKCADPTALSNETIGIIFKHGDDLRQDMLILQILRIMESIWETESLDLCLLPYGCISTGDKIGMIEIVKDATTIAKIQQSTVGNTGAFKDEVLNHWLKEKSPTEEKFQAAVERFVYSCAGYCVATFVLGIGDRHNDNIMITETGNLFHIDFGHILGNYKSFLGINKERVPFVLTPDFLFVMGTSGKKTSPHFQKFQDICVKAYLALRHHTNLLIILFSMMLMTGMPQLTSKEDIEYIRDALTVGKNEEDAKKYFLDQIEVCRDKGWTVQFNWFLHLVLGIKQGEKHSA
Chain of Phosphatidylinositol 4,5-bisphosphate 3-kinase catalytic subunit beta isoform (P42338 whole entry, canonical isoform): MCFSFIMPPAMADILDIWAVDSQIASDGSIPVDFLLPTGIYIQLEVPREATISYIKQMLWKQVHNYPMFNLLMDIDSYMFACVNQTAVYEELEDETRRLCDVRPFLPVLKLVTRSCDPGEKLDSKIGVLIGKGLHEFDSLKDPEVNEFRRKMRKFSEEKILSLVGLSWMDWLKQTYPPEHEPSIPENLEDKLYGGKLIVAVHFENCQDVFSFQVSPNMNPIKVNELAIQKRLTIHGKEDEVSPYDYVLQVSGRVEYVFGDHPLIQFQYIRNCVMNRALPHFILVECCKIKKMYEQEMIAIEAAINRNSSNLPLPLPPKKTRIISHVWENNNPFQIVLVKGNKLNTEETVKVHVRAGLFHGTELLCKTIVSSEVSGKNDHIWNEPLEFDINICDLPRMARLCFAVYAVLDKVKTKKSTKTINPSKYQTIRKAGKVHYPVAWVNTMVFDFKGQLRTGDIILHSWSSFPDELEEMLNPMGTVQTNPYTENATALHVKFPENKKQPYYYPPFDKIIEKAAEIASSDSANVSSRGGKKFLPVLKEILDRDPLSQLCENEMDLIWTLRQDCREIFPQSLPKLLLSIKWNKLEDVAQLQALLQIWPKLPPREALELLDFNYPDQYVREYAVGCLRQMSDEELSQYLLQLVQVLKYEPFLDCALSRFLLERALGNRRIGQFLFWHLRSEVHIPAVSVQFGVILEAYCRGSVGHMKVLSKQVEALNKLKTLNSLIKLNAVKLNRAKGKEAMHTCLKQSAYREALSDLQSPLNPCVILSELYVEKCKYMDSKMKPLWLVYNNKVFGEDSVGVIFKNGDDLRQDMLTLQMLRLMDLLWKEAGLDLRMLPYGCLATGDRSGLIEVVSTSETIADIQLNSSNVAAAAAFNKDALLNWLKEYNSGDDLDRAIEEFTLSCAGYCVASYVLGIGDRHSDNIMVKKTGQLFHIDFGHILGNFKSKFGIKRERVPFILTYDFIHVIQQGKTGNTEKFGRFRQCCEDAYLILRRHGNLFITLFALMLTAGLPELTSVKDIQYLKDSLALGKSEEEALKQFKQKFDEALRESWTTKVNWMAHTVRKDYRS

pIC50 [1]	pIC50 [2]	pIC50 [3]	pIC50 [4]	pIC50 [5]	Compound
< 4.52					CC(C)(O)c1ccc(-c2cnc3c(n2)N(CC2CCOCC2)CC(=O)N3)cn1
	> 8.31	7.52	8.88	> 9.31	NOCCOCCOCCOCCC(=O)N1CCN(c2cnc3ccc(-c4cnc(Cl)c(NS(=O)(=O)c5ccc(F)cc5)c4)cc3n2)CC1
